According to patent publication US20110294881A1, “METHODS FOR TREATING LOWER URINARY TRACT DISORDERS USING alpha2delta SUBUNIT CALCIUM CHANNEL MODULATORS WITH SMOOTH MUSCLE MODULATORS” (EDUSA PHARMACEUTICALS, INC., priority 2003, published 2011):

Assays:
[1] = test system: α2δ subunit of calcium channels; conditions: Bryans et al. (1999) Med. Res. Rev. 19:149-177; cited from earlier work
[2] = preclinical and clinical studies; broad range of oral doses; cited from earlier work
SCI rats = conditions: Cheng et al., 1995, Brain Res. 678:40-48; cited from earlier work
[3] = test system: female cats, dilute acetic acid irritated bladder; test: Dilute acetic acid model in cats: bladder capacity and voiding efficiency; assay type: in vivo; conditions: cat; 30 mg/kg dose alone
Description: Alpha-chloralose anesthetized (50-100 mg/kg) normal female cats (2.5-3.5 kg; Harlan) were utilized in this study.
Female cats (2.5-3.5 kg; Harlan) had their food removed the night before the experiment. The following morning, the cat was anesthetized with isoflurane and prepped for surgery using aseptic technique. Polyethylene catheters were surgically placed to permit the measurement of bladder pressure, urethral pressure, arterial pressure, respiratory rate as well as for the delivery of drugs. Fine wire electrodes were implanted alongside the external urethral anal sphincter. Following surgery, the cats were slowly switched from the gas anesthetic isoflurane (2-3.5%) to alpha-chloralose (50-100 mg/kg). During control cystometry, saline was slowly infused into the bladder (0.5-1.0 ml/min) for 1 hour. The control cystometry was followed by 0.5% acetic acid in saline for the duration of the experiment. After assessing the cystometric variables under these baseline conditions, the effects of test drug(s) on micturition were determined via a 3-5 point dose response protocols.
For the purposes of assessing synergy using all of the data simultaneously, bladder capacity data for each animal were normalized to % Recovery from Irritation, and this index was used as the measure of efficacy. […]

[4] = test system: female rats, dilute acetic acid irritated bladder; test: Dilute acetic acid model, acute anesthetized rats: bladder capacity by cystometry; assay type: in vivo, rat; conditions: Example 1; for effectiveness of drug alone on bladder capacity: i.v.; for effective dose range of the drug in combination versus the drug alone (isobologram): individual animals, return to 31% of saline control, FIG. 4
Description: (§1) Urethane anesthetized (1.2 g/kg) normal female rats were utilized in this study.
(§2) Animals were dosed by volume of injection=body weight in kg.
Animal Preparation: Female rats (250-300 g body weight) were anesthetized with urethane (1.2 g/kg) and a saline-filled catheter (PE-50) was inserted into the jugular vein for intravenous drug administration. […] The abdominal cavity was moistened with saline and closed by covering with a thin plastic sheet in order to maintain access to the bladder for emptying purposes. Fine silver or stainless steel wire electrodes were inserted into the external urethral sphincter (EUS) percutaneously for electromyography (EMG).
Following 30 minutes of AA infusion, 3 vehicle injections were made at 20 minute intervals to determine vehicle effects, if any.
P<0.050 was considered significant.
as §1, §2

Q: Which “binding affinity for the α2δ subunit of calcium channels relative to gabapentin” value [1] does the source give for CC(C)C[C@H](CN)CC(=O)O [Pregabalin, (S)-(3-aminomethyl)-5-methylhexanoic acid] here?
A: Its value is “even higher binding affinity”.

Q: Which “blood levels of gabapentin after oral prodrug” value [2] does the source give for CC(OC(=O)NCC1(CC(=O)O)CCCCC1)OC(=O)C(C)C (stereo not drawn) [XP13512] here?
A: Its value is “dose proportional blood levels of gabapentin”.

Q: For COc1cc(CNC(=O)CCCC/C=C/C(C)C)ccc1O [capsaicin], which “bladder capacity to voiding” value (SCI rats) is on record?
A: Its value is “not effect bladder capacity to voiding”.

Q: And the bladder instability (SCI rats)?
A: Its bladder instability is “reduce bladder instability”.

Q: For NCC1(CC(=O)O)CCCCC1 [gabapentin, 1-(aminomethyl)cyclohexaneacetic acid], which “effect on bladder capacity” value [3] is on record?
A: The value was “no significant effect”.

Q: And the “effectiveness of drug alone on bladder capacity” value [4]?
A: The value was “modest effectiveness”.

Q: What about the “effective dose range of the drug in combination versus the drug alone (isobologram)” value [4] of the same compound?
A: The value was “significantly lower”.

Q: With CCN(CC)CC#CCOC(=O)C(O)(c1ccccc1)C1CCCCC1 (stereo not drawn) [oxybutynin, 4-diethylaminio-2-butynyl phenylcyclohexyglycolate] as the compound, how does the “effectiveness of drug alone on bladder capacity” value [4] read?
A: Its value is “modest effectiveness”.

Q: And the “effective dose range of the drug in combination versus the drug alone (isobologram)” value [4]?
A: The value was “significantly lower”.
